Test results as given in patent publication US5043332A, “Novel 11β-substituted -19-nor-steriods” (priority 1981, dated 1991).

Columns and labels:
[1] = biological target: T1, Androgen receptor of prostate of rats (Rattus norvegicus, UniProt P15207); assay: Androgen receptor binding (displacement of tritiated product P); conditions: for affinity for androgen receptors (in words): conclusion
T1 construct: The prostates were removed, weighed and homogenized at 0° C; from tissue; host or cells: rat prostate, 105,000 g supernatant (castrated male Sprague-Dawley rats)
T1 sequence (P15207 1-902): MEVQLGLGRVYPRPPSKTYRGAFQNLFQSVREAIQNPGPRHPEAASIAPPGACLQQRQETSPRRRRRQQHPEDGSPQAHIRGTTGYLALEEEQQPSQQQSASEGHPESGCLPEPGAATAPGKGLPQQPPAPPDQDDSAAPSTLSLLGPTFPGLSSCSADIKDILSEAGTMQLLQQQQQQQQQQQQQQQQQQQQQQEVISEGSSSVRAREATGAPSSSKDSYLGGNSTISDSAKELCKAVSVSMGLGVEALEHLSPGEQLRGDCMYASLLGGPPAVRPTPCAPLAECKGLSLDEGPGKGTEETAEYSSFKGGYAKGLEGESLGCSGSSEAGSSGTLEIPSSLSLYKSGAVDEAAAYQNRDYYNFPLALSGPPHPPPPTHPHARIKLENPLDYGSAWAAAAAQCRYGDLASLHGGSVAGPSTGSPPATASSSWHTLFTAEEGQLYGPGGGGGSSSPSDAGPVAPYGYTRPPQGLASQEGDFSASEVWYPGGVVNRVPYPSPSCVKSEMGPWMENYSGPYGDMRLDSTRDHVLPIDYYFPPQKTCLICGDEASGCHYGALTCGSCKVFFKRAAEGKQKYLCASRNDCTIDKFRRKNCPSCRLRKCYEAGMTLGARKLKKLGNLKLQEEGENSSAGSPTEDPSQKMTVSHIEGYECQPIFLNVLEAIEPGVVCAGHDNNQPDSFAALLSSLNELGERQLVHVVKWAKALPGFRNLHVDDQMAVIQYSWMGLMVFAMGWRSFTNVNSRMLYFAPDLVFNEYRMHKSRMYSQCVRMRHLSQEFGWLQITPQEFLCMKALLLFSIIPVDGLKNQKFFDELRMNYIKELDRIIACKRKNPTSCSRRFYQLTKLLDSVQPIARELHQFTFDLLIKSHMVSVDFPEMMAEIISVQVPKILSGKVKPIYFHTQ
Experimental: B. Androgen receptor of prostate of rats
Male Sprague-Dawley EPOS rats weighing of 160 to 200 g were castrated and 24 hours later, the animals were killed. The prostates were removed, weighed and homogenized at 0° C. with a polytetrafluoroethylene-glass Potter with a buffered TS solution (Tris, 10 mM, 0.25M Saccharose, HCl-pH of 7.4) using 1 g of tissue per 5 ml of TS. The homogenate was then ultracentrifuged at 105,000 g for 60 […] (T) of product P or 17α-methyl-Δ^4,9,11 -estratriene-17β-ol-3-one in the presence of increasing concentration (0-1,000×10^-9 M) of either cold P, cold testosterone or the test compound. The concentration of tied tritiated (B) was measured for each incubate by the technique of adsorption on carbon-dextran.
(§1) The calculation of the relative affinity of […] (ARL) was identical for all of the above receptor tests. One traced the following two curves: the percentage of tied tritiated hormone B/T as a function of the logarithm of the cold hormone concentration and B/T as a function of the logarithm of the concentration of the cold test product. One determined the line of the equation. [formula]
(§2) The intersection of the I50 line and the curves permits one to determine the concentrations of the cold hormone of the reference (CH) and the cold test compound (CX) which inhibit by 50% the tieing of tritiated hormone with the receptor. The relative affinity of tieing (ARL) of the test product was determined by the equation: [formula]

[2] = biological target: T2, Mineralcorticoidal receptor of kidneys of the rat (Rattus norvegicus, UniProt P22199); assay: Mineralcorticoidal receptor binding (displacement of tritiated aldosterone)
T2 construct: from tissue; host or cells: rat kidney, 105,000 g supernatant (adrenalectomized male Sprague-Dawley rats)
T2 sequence (P22199 1-981): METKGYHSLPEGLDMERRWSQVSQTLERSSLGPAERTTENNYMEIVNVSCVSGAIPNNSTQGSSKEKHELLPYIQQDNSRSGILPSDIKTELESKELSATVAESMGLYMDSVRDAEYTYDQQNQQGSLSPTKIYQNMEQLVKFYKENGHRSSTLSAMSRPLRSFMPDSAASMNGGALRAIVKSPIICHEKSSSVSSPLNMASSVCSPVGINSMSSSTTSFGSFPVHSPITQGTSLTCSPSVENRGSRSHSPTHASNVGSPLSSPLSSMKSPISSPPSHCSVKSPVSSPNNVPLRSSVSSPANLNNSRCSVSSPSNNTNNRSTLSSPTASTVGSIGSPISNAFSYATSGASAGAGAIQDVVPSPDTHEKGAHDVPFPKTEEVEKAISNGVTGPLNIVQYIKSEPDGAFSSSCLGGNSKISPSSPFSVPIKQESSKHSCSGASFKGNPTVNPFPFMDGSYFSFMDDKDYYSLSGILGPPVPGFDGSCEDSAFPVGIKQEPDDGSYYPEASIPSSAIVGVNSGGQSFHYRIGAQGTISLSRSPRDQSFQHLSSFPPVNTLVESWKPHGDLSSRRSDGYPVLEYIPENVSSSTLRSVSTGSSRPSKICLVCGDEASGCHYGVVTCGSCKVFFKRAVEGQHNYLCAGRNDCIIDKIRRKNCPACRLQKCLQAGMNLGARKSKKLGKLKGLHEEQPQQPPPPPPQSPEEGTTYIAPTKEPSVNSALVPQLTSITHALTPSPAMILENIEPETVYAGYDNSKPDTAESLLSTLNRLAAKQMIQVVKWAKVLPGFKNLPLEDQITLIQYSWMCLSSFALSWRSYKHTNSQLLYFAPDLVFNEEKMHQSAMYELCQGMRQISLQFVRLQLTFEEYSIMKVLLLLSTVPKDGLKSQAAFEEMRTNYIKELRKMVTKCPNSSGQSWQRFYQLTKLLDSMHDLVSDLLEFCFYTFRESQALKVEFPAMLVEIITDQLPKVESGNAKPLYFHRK
Experimental: A. Mineralcorticoidal receptor of kidneys of the rat
Male Sprague-Dawley EOPS rats weighing 140 to 160 g surrenalectomized 4 to 8 days previously were killed and their kidneys were perfused in situ with 50 ml of a buffer (10 mM of Tris 0.25M of Saccharose and sufficient hydrochloric acid for a pH of 7.4). The kidneys were then removed, decapsulated and homogenized at 0° C. with a polytetrafluoroethylene-glass Potter (1 g of tissue per 3 ml of buffer). The homogenate was centrifuged for 10 minutes at 800 g at 9° C.
After elimination of the fixation of tritiated aldosterone with glucocorticoid receptor, 21-methyl-Δ^1,4,6 -pregnatriene-20-yne-11β,17β-diol-3-one fixed only with the glucocorticoid receptor was added to the supernatant at a final concentration of 10^-6 M. The suprenatant was ultracentrifuged at 105,000 g for 60 minutes and 0° C. and aliquoits of the resulting surnageant were incubated at 0° C. with a constant concentration (T) of tritiated aldosterone in the presence of increasing concentrations (0-2500×10^-9 M) of cold aldosterone or the cold test product. After a time (t) of incubation, the concentration of tied tritiated aldosterone (B) was measured by the technique of adsoprtion on carbon dextran.
as §1, §2

[3] = second table, incubation 24 H at 0° C.

| Structure (SMILES) | relative affinity of tieing (ARL), Androgen ([1]; incubation 1/2H at 0° C.) | relative affinity of tieing (ARL), Androgen ([1]; incubation 24 H at 0° C.) | relative affinity of tieing (ARL), Mineralocorticoid ([2]; incubation 1 H at 0° C.) | relative affinity of tieing (ARL), Mineralocorticoid ([2]; incubation 24 H at 0° C.) | affinity for androgen receptors (in words) [1] | relative affinity of tieing (ARL), Androgen [1, 3] | relative affinity of tieing (ARL), Mineralocorticoid [2, 3] |
| --- | --- | --- | --- | --- | --- | --- | --- |
| CC#C[C@]1(OC(C)=O)CC[C@H]2[C@@H]3CCc4cc(O)ccc4[C@H]3[C@@H](c3ccc(N(C)C)cc3)C[C@@]21C [2 (17 OAc), 11β-(4-dimethylaminophenyl)-17α-(prop-1-ynyl)-17β-acetoxy-Δ^1,3,5(10) -estratriene-3-ol] | < 0,1 | < 0,1 | < 0,1 | < 0,1 |  |  |  |
| CC#C[C@]1(O)CC[C@H]2[C@@H]3CCC4=CC(=O)[C@H](C)CC4=C3[C@@H](c3ccc(N(C)C)cc3)C[C@@]21C [5 (2α), 2α-methyl-11β-(4-dimethylaminophenyl)-17α-(prop-1-ynyl)-Δ^4,9-estradiene-17β-ol-3-one] | 0,5 | 0,4 | < 0,1 | < 0,1 |  |  |  |
| CC#C[C@]1(O)CC[C@H]2[C@@H]3CCC4=CC(=O)[C@@H](C)CC4=C3[C@@H](c3ccc(N(C)C)cc3)C[C@@]21C [5 (2β), 2-methyl-11β-(4-dimethylaminophenyl)-17α-(prop-1-ynyl)-Δ^4,9-estradiene-17β-ol-3-one] | 0,7 | 0,5 | < 0,1 | < 0,1 |  |  |  |
| CC#C[C@]1(O)CC[C@H]2[C@@H]3CCC4=CC(=O)C(C)(C)CC4=C3[C@@H](c3ccc(N(C)C)cc3)C[C@@]21C [Example 1, 2,2-dimethyl-11β-(4-dimethylaminophenyl)-17α-(prop-1-ynyl)-Δ^4,9-estradiene-17β-ol-3-one] |  |  | < 0,1 | < 0,1 |  |  |  |
| CC#C[C@]1(O)CC[C@H]2[C@@H]3CCC4=CC(=O)[C@H](C)CC4=C3[C@@H](c3ccc(N(C)C)cc3)C[C@@]21C [Example 5, 2α-methyl-11β-(4-dimethylaminophenyl)-17α-(prop-1-ynyl)-Δ^4,9-estradiene-17β-ol-3-one] |  |  |  |  | slightly moderate affinity |  |  |
| CC#C[C@]1(O)CC[C@H]2[C@@H]3CCC4=CC(=O)C(C#N)(C#N)CC4=C3[C@@H](c3ccc(N(C)C)cc3)C[C@@]21C [Example 9, 2,2-dicyano-11β-(4-dimethylaminophenyl)-17α-(prop-1-ynyl)-Δ^4,9-estradiene-17β-ol-3-one] | < 0,1 | < 0,1 | < 0,1 | < 0,1 |  |  |  |
| CC#C[C@]1(O)CC[C@H]2[C@@H]3CCC4=C(CCC(=O)C4)[C@H]3[C@@H](c3ccc(N(C)C)cc3)C[C@@]21C [Example 10, 11β-(4-dimethylaminophenyl)-17α-(prop-1-ynyl)-Δ^5(10) -estrene-17β-ol-3-one] |  |  | 1,5 | < 0,1 |  |  |  |
| C#C[C@@]1(O)CC[C@H]2[C@@H]3CCC4=CC(=O)CCC4=C3[C@@H](c3ccc(N(C)C)cc3)C[C@@]21C [Example 21, 11β-[4-(N,N-dimethylamino)-phenyl]-17β-ethynyl-Δ^4,9-estradiene-17α-ol-3-one] |  |  |  |  |  | 7,3 | 0,8 |
| C=C(C)C#C[C@]1(O)CC[C@H]2[C@@H]3CCC4=CC(=O)CCC4=C3[C@@H](c3ccc(N(C)C)cc3)C[C@@]21C [Example 23, 11β-[4-(N,N-dimethylamino)-phenyl]-23-methyl-19,21-dinor-17α-Δ^4,9,23-cholatriene-20-yn-17β-ol-3-one] |  |  |  |  |  | 14,7 | 0 |
| CN(C)c1ccc([C@H]2C[C@@]3(C)[C@@H](CC[C@@]3(O)C#CCl)[C@@H]3CCC4=CC(=O)CCC4=C32)cc1 [Example 25, 11β-[4-(N,N-dimethylamino)-phenyl]-21-chloro-19-nor-17α-Δ^4,9-pregnadiene-20-yne-17β-ol-3-one] |  |  |  |  | slightly moderate affinity | 32 | 0 |
| C[C@]12C[C@H](c3ccc([N+](C)(C)[O-])cc3)C3=C4CCC(=O)C=C4CC[C@H]3[C@@H]1CC[C@@]2(O)C#CCl [Example 26, N-oxide of 11β-[4-(N,N-dimethylamino)-phenyl]-21-chloro-19-nor-17α-Δ^4,9-pregnadiene-20-yne-17β-ol-3-one] |  |  |  |  |  | 9,8 | 0 |
| CN(C)c1ccc([C@H]2C[C@@]3(C)[C@@H](CC[C@@]3(O)C#Cc3ccccc3)[C@@H]3CCC4=CC(=O)CCC4=C32)cc1 [Example 29, 11β-[4-(N,N-dimethylamino)-phenyl]-21-phenyl-19-nor-17α-Δ^4,9-pregnadiene-20-yne-17β-ol-3-one] |  |  |  |  |  | 0 |  |
| CC#C[C@]1(O)CC[C@H]2[C@@H]3CCC4=CC(=O)CCC4=C3[C@@H](c3ccc([N+](C)(C)[O-])cc3)C[C@@]21C [Example 35, N-oxide of 11β-[4-(N,N-dimethylamino)-phenyl]-17α-(prop-1-ynyl)-Δ^4,9-estradiene-17β-ol-3-one] |  |  |  |  |  | 2,2 |  |
